Experimental data: patent publication US7807368B2, “Cyclin-dependent kinase inhibitors as targets for opiod growth factor treatment” (priority 2006, dated 2010)

How the values were obtained:
SCC-1 cells [1] = assay: Growth curves of SCC-1 cells (viable cell counts, hemacytometer); assay type: cell-based, human; settings: 10^-6 M OGF
Experimental: The SCC-1 (UM-SCC-1) cell line was obtained from the University of Michigan Cancer Research Laboratory, and CAL-27 and SCC-4 cells were obtained from the American Type Culture Collection (Manassas, Va.). SCC-1 and CAL-27 cells were cultured in DMEM media, whereas SCC-4 cells were grown in 1:1 Hams F-12 DMEM media. All media was supplemented with 10% fetal bovine serum (HyClone, Logan, Utah), 1.2% sodium bicarbonate, and 5000 units/ml penicillin, 5 μg/ml streptomycin and 10 μg/ml neomycin. OGF was purchased from Sigma-Aldrich (St. Louis, Mo.), dissolved in sterile water, and used at a final concentration of 10^−6 M.
Cell growth and flow cytometry. For growth curves, cells were seeded in 6-well plates at an initial density of ˜2×10^5 cells/well. Fresh media and OGF were added 24 h after initial seeding, and media and OGF were replaced daily. At appropriate times, the cells were washed with PBS, trypsinized, and viable cell numbers were counted by trypan blue exclusion using a hemacytometer.

Rb protein = assay: Western blot of Rb, phospho-Rb, p105 and p107 in synchronized SCC-1 cells; assay type: cell-based, human
Experimental: Synchronized cells (˜2×10^6) from each treatment were solubilized in 200 μl RIPA buffer (1×PBS, 10 μM IGEPAL, 1 mg/ml SDS, 5 mg/ml deoxycholic acid), containing protease and phosphatase inhibitors (2 μg/ml aprotinin, 3 mg/ml phenylmethyl sulfonyl fluoride (PMSF), 1 mM sodium orthovanidate, 1 μM okadaic acid). Total protein concentrations were measured using the DC protein assay kit (Bio-Rad Laboratories, Hercules, Calif.). Equal amounts of protein (40 μg) were subjected to 10% SDS-PAGE followed by transfer of proteins onto polyvinylidene difluoride (Millipore, Billerica, Mass.) using standard protocols. The following antibodies were purchased from commercial sources: phospho-Rb (Ser795), phospho-Rb (Ser807/811) (Cell Signaling Technology, Beverly, Mass.); phospho-Rb (Thr821) (Biosource, Camarillo, Calif.); Cdk4, cyclin D1, p15, p16, p18, p19 (Santa Cruz Biotechnology, Santa Cruz, Calif.); total Rb, p21, p27 (BD PharMingen, San Diego, Calif.); β-actin (Clone AC-15, Sigma). The following dilutions of primary antibodies were used to detect respective proteins. 1:200 phospho-Rb (Ser795), 1:200 phospho-Rb (Ser807/811); 1:200 phospho-Rb (Thr821); 1:200 Cdk4, 1:200 cyclin D1, 1:100 p16; 1:200 total Rb, 1:200 p21, 1:100 p27. […]
To determine equal loading of total protein samples, blots were reprobed with monoclonal antibody against β-actin at a dilution of 1:2000. […] Means and SE were determined from 3 or more independent experiments.
To quantify expression levels or kinase activity, the optical density of each band was determined by densitometry and analyzed by QuickOne (Bio-Rad Laboratories). […] To report the changes due to OGF treatment, the fold increase was calculated by dividing the normalized value from the OGF treated samples by the normalized value of control samples at each time point; thus, increases due to OGF have values greater than one, and decreases due to OGF have values less than one.

[2] = tested on: Rabbit Tenon's Fibroblast cells (RTCFs); assay: Cell counts of Rabbit Tenon's Fibroblast cells; assay type: cell-based; settings: 72 hours
Experimental: OGF in dosages ranging from 10−4 to 10^−7 M were added to 24-well cultures for 72 hours; sterile water served as control. Drug or vehicle, and media were changed daily. Cell counts of Rabbit Tenon's Fibroblast cells (RTCFs) treated with OGF (10^−7 to 10^−5 M) were 28%, 33%, and 37% smaller than controls (p<0.001).

SCC-1 cells [3] = assay: Growth of SCC-1 cells transfected with p16 siRNA or negative control siRNA; assay type: cell-based, human; settings: 10^-6 M OGF; for reduction in growth: negative control siRNA-transfected SCC-1 cells
Experimental: The p16-targeted siRNAs (antisense:5′ […]-3′; sense (SEQ ID NO:5): 5′ […]-3′(SEQ ID NO:6) were obtained as ready-annealed, purified duplex probes (Invitrogen, Carlsbad, Calif.). For transfection, 2×10^5 cells per well were seeded in 6-well plates containing 1 ml of serum-free media without antibiotics. In each well, 20 nM of p16-siRNA or control siRNA solutions in serum-free media were added. Cells were incubated for 4 h at 37° C. prior to the addition of OGF. Cultures were incubated for additional 20 h, and then 1 ml fresh complete media either lacking or containing OGF was added. At the indicated time points, cells were collected for growth curves or Western blotting. Three or more independent experiments were conducted. The control siRNAs were purchased from Ambion.

BxPC-3 cells = assay: Flow cytometry cell cycle distribution, synchronized BxPC-3 cells; assay type: cell-based, human; settings: 10^-6 M OGF, 21 hours
Experimental: For flow cytometry, cells were synchronized with 67 ng/ml nocodazole (Sigma-Aldrich) for 24 hours, followed by three washes with complete media. Cells were released from growth arrest by addition of complete media or OGF supplemented complete media. Synchronized cells were treated with 10^-6 M OGF for 21 hours, harvested with 0.25% trypsin-EDTA (Mediatech, Herndon, Va.) and fixed with 70% ethanol at −20° C. for up to 7 days before DNA analysis.
DNA content was obtained by incubating cells in PBS containing propidium iodide (0.1 mg/ml) and RNase A (0.02 mg/ml) for 15 minutes at 220 C. Fluorescence was measured and analyzed using a BD Biosciences FACScan flow cytometer (San Diego, Calif.) and Modfit Software (Topsham, Me.).

[Met^5]-enkephalin [OGF]
Cell number compared to controls (SCC-1 cells [1]; 72 h): 87.5% | Cell number compared to controls (SCC-1 cells [1]; 96 h): 59.0% | mean doubling time (SCC-1 cells [1]; linear regression of growth data): approximately 41.3 h | phospho-Rb (pT821) levels (Rb protein; OGF treatment, Western blot): did not alter | Expression of total Rb protein (Rb protein; after 14 h of OGF treatment): not decreased | Total levels of p105 and p107 (Rb protein; after exposure to OGF): no changes | decrease in cell proliferation compared to RTCFs treated with 10^-6 M OGF ([2]; 10^-4 M OGF): 22% | decrease in cell proliferation compared to RTCFs treated with 10^-7 M OGF ([2]; 10^-4 M OGF): 26% | decrease in proliferation compared to controls ([2]; 10^-4 M OGF): 47% | Cell counts smaller than controls ([2]; 10^-5 M OGF): 37% | Cell counts smaller than controls ([2]; 10^-6 M OGF): 33% | Cell counts smaller than controls ([2]; 10^-7 M OGF): 28% | Cell numbers vs control levels (SCC-1 cells [3]; FIG. 4 growth curves, p<0.05): significantly reduced | reduction in growth (SCC-1 cells [3]; 72 h): 24% | reduction in growth (SCC-1 cells [3]; 96 h): 40% | cells in S phase (BxPC-3 cells): 28.0% | cells in the G2/M phase (BxPC-3 cells): 2.9% | percentage of cells in the G0/G1 phase (BxPC-3 cells): 69.1%
